# Reference: US20260183396A1, “CXCR3 OVEREXPRESSION IN CAR-NK CELLS PRIMES MIGRATION/HOMING INTO THE TUMOR MICROENVIRONMENT” (DANA-FARBER CANCER INSTITUTE, INC., priority 2022, published 2026)
# How the values were obtained:
# CXCL10 = CXCL10 release from MPM PDOTS/explants; format: cell-based, human; details: MPM PDOTS, specific samples
# Experimental: Patient-derived organotypic tumor spheroids (PDOTS). PDOTS were generated as previously described (Jenkins et al., Cancer Discov. 8:196-215 (2018); Aref et al., Lab Chip 18:3129-3143 (2018)). Briefly, fresh tumor specimens were minced in a 15 mL falcon tube in prewarmed to 37° C. full media (DMEM from Thermo Fisher Scientific+10% FBS)+100 U/mL collagenase type IV (Life Technologies) and 50 μg/mL dNase I (Roche) for approximately 20 minutes using sterile scissors and pipetting. Dissociated material was strained over 100-μm filter and 40-μm filters to generate S1 (>100 μm), S2 (40-100 μm), and S3 (<40 μm) spheroid fractions, which were subsequently maintained in ultralow-attachment (ULA) tissue culture plates (Corning). […] S2 fractions were used for ex vivo culture by resuspending them in type I rat tail collagen (Corning) at a concentration of 2.8 mg/mL prior to loading into the center gel region of the 3-D microfluidic culture device (AIM Biotech) and incubation for 40 minutes at 37° C. in humidity chambers to allow for polymerization. Collagen hydrogels containing PDOTS were hydrated with media with or without indicated treatments. TAK-676 was provided by Takeda and diluted in dH20. Recombinant human interferon beta (100 ng/ml; R&D Systems) was used as a positive control downstream of STING for STAT1 pathway activation. […]
# NK cells = test: Immune cell toxicity assays, NK cells; format: cell-based; details: 72 hours of high dose exposure; regardless of IL-2 or co-culture with TILs
# Experimental: (§1) Immune Cell Toxicity Assays. […] Following treatment, samples were stained with anti-CD45, anti-CD3, anti-CD4, anti-CD8, and anti-CD56 antibodies (Table 1), as well as Zombie Green live/dead (Biolegend 423111) and analyzed by flow cytometry as described above. Data were analyzed using FlowJo software version 10.5.3. As an orthogonal measure of viability, CellTiter-Glo was performed on primary T-cells and NK cells.
# (§2) CellTiter-Glo luminescent cell viability assay. Cell viability was assessed using the CellTiter-Glo Luminescent Cell Viability assay (Promega, G7571) according to manufacturer's instructions. […] All conditions were tested in triplicate and plates were read on a Tecan Infinite Mplex Microplate Reader.
# STING = STING immunoblotting in NK cells and TILs; format: cell-based, human
# Experimental: Immunoblotting. […] Imaging of blots and was performed using the LI-COR Odyssey system.
# T-cells = test: Immune cell toxicity assays, T-cells; format: cell-based, human
# Experimental: as §1, §2
# H226 MPM cells = test: NK cell migration assay towards H226 spheroids; format: cell-based, human
# Experimental: NK cell infiltration assay. Immune cell infiltration was assessed as previously described (Kitajima et al., Cancer Discov. 9:34-45 (2019); Mahadevan et al., Cancer Discov. 11:1952-1969 (2021)). Briefly, mesothelioma cancer cell spheroids (H2591, H2461, H226) were generated by seeding 5×10^5 cells in suspension in a ULA dish for 24 hours. […] Samples were then pelleted and resuspended in type I rat tail collagen (Corning) at a concentration of 2.5 mg/mL following the addition of 10×PBS with phenol red and pH adjustment using NaOH. pH 7.0-7.5 was confirmed using PANPEHA Whatman paper (Sigma-Aldrich). Cells and collagen were kept on ice to prevent polymerization. The spheroid-collagen suspension was then injected into the central gel region of the 3D DAX-1 microfluidic cell culture chip (AIM Biotech). Microfluidic devices were utilized as previously described (Aref et al., Lab Chip 18:3129-3143 (2018)), with a central region containing the cell-collagen mixture in a 3D microenvironment (3×10^4 cells H2591 and H2461, 2× 10^4 cells H226 in 10 μL), flanked by 2 media channels. After injection, collagen hydrogels containing cells were incubated for 40 minutes at 37° C. in humidity chambers, then hydrated with culture media, with labeled primary NK cells (ET ratio 2:1) added to one of the side channels. Primary NK cells were labeled with Cell Tracker Red (Thermo Fisher Scientific) following manufacturer's instructions. After 96 hours of incubation, viability staining of cancer cell spheroids and infiltrated immune cells was performed (20-minute incubation with 1 μg/mL solution of Propidium Iodide; Thermo Fisher Scientific). For the experiment with the CXCR3 neutralizing antibody (R&D MAB160), NK cells were pre-treated for 30 minutes prior to loading.
# (§3) For quantification, images were captured on a Nikon Eclipse 80i fluorescence microscope equipped with Z-stack (Prior) and CoolSNAP CCD camera (Roper Scientific). Image capture and analysis was performed using NIS-Elements AR software package. Whole device images were achieved by stitching in multiple captures. Quantification of immune cell infiltration into the 3D tumor microenvironment was performed by measuring the total cell area of cell tracker dye in the entire gel region. For the experiment with the CXCR3 neutralizing antibody (R&D MAB160; FIG. 6B), staining was quantified in a square region in the center of the channel to focus on effects of CXCR3 ligands released by tumor cells. Percent dead cell quantification was performed as in PDOTS as described above.
# Immune cell migration assays were performed as previously described (Kitajima et al., Cancer Discov. 9:34-45 (2019)). […]
# H2591 MPM cells = test: NK cell migration assay towards H2591 spheroids; format: cell-based, human
# Experimental: NK cell infiltration assay. Immune cell infiltration was assessed as previously described (Kitajima et al., Cancer Discov. 9:34-45 (2019); Mahadevan et al., Cancer Discov. 11:1952-1969 (2021)). Briefly, mesothelioma cancer cell spheroids (H2591, H2461, H226) were generated by seeding 5×10^5 cells in suspension in a ULA dish for 24 hours. […] Samples were then pelleted and resuspended in type I rat tail collagen (Corning) at a concentration of 2.5 mg/mL following the addition of 10×PBS with phenol red and pH adjustment using NaOH. pH 7.0-7.5 was confirmed using PANPEHA Whatman paper (Sigma-Aldrich). Cells and collagen were kept on ice to prevent polymerization. […]
# as §3, with “Image capture and analysis was performed using NIS-Elements AR software package. Whole device images were achieved by stitching in multiple captures.” left out, “above. […]” for “above.”
structure (smiles),measurement,setting,value
Nc1ncnc2c1ncn2[C@@H]1O[C@@H]2COP(=O)([S-])O[C@@H]3[C@H](O)[C@@H](COP([O-])(=S)O[C@H]2[C@H]1O)O[C@H]3n1cnc2c(N)ncnc21.[Na+].[Na+] (stereo partly drawn) [ADU-S100],CXCL10 release,CXCL10,induced CXCL10 release
same,cytotoxicity in human NK cells,NK cells,no significant cytotoxicity
same,time within which STING was degraded,STING; NK cells,3 to 6 h
same,T-cell STING degradation,"STING; T-cells, STING phosphorylated and activated",minimally degraded
same,cytotoxicity to T-cells by flow cytometry,"T-cells; MPM tumor explants, increased from 24 to 72 hours",cytotoxic
same,cytotoxicity in T-cells purified from peripheral blood,T-cells; with or without BCMA CAR,dose-dependent cytotoxicity
same,CAR-NK CXCR+ cell migration,H226 MPM cells,increased
same,CAR-NK control cell migration,H226 MPM cells,did not affect
same,migration of cNK cells,H226 MPM cells,increased migration
same,migration of cNK overexpressing CXCR3,H226 MPM cells,decreased migration
same,migration of cNK cells,H2591 MPM cells,increased migration
same,migration of cNK overexpressing CXCR3,H2591 MPM cells,decreased migration
